# Laboratory results reported in US20210046071A1, “TETRACYCLIC COMPOUNDS AND THEIR SALTS, COMPOSITIONS, AND METHODS FOR THEIR USE” (Senhwa Biosciences, Inc., priority 2019, published 2021).
# Read-outs that look alike come from different tables or passages of the source.
# Test: Pharmacokinetic studies in human, Compound I in plasma by LC/MS/MS
# Format: in vivo
# Conditions: human, plasma, iv; for AUC(0-inf): read-out: AUC∞; for half-life: read-out: T1/2 (converted)
# Protocol: Pharmacokinetic studies and dose escalation studies were conducted in adult patients with metastatic, recurrent, locally, advanced, or unresectable solid malignancy (patients with histologically and/or cytologically confirmed solid malignancy), who received prior anti-cancer treatment(s) until disease progression, at 10 different dose levels of Compound I. Groups 1-7 were administered intravenously on days 1 and 8 of a 4-week cycle at 50, 100, 150, 200, 250, 325, and 475 mg/m^2 (lyophilized formulation), respectively. Groups 8-10 were administered intravenously on days 1,8, and 15 of a 4-week cycle at 325, 475, and 650 mg/m^2 (lyophilized formulation), respectively. Each patient received each dose over 1 hour by IV infusion on days described above.
# They lyophilized formulation was reconstituted with 5% glucose in sterile water, or similar biologically acceptable fluid, for IV infusion.
# For patients in Groups 1-7, blood samples were typically collected at Day 1 at pre-infusion (t=−1 h), during infusion at about 30 minutes (t=−0.5 h), immediately post infusion (t=0 h), 30 min post-infusion, 1 h post-infusion, 2 h post-infusion, 4 h post-infusion, and 6 h post-infusion, as well as at about 24 h post-infusion, 48 h post-infusion, and 72 h post-infusion. On Day 8, blood samples were typically collected at pre-infusion (t=−1 h), during infusion at about 30 minutes (t=−0.5 h), immediately post infusion (t=0 h), 30 min post-infusion, 1 h post-infusion, 2 h post-infusion, 4 h post-infusion, and 6 h post-infusion, as well as at about 24 h post-infusion, and 168 h post-infusion (Day 15).
# For patients in Groups 8-10, blood samples were typically collected at Day 1 at pre-infusion (t=−1 h), during infusion at about 30 minutes (t=−0.5 h), immediately post infusion (t=0 h), 30 min post-infusion, 1 h post-infusion, 2 h post-infusion, 4 h post-infusion, and 6 h post-infusion, as well as at about 24 h post-infusion, 48 h post-infusion, and 72 h post-infusion. On Day 8, blood samples were typically collected at pre-infusion (t=−1 h). On Day 15, blood samples were typically collected at pre-infusion (t=−1 h), during infusion at about 30 minutes (t=−0.5 h), immediately post infusion (t=0 h), 30 min post-infusion, 1 h post-infusion, 2 h post-infusion, 4 h post-infusion, and 6 h post-infusion, as well as at about 24 h post-infusion, and 168 h post-infusion (Day 22).
# Levels of Compound I in patient's plasma were analyzed by liquid chromatography tandem mass spectrometry (LC/MS/MS) assay. Experimental procedures of the validated methods are summarized below. The pharmacokinetic parameters after first dose and second dose for Groups 1-7 and after first dose and third dose for Groups 8-10 are shown in Tables 2A-2J. In Tables 2A-2J: SD=standard deviation; Cmax=maximum observed concentration; D=dose; Tmax=time to maximum observed concentration; T1/2=elimination half-life; Vd=volume of distribution; CL=drug clearance; and AUC∞=area under the concentration-time curve from time zero to infinity (total exposure).
# The concentrations of Compound I in human plasma samples collected from subjects of as discussed above. Compound I concentrations in plasma samples were measured based on 9 levels of calibration standards from 5.00 to 5000 ng/mL, and 3 levels of QC at 15.0 ng/mL (low), 2500 ng/mL (mid), and 4000 ng/mL (high).
# Two reference standard master stock solutions of Compound I were prepared by dissolving the Compound 1 reference standard with 50:50:0.1 ACN:diH2O:FA (v/v/v) and sonicating for 7 minutes (diH2O=deionized water). The resulting solutions were further diluted with 50:50:0.1 ACN:diH2O:FA (v/v/v) into a series of working stock solutions (WSS) for spiking of Compound I calibration standards and QC samples. The master stock solutions were prepared fresh on the day of assay, or stored at nominal 2° C. to 8° C. for later use. Master stock solutions were used within the stability timeframe. […]
# [1] = 150 mg/m2, Group 3, 150 mg/m^2 IV, Day 8, mean, n = 4
# [2] = 200 mg/m2, Group 4, 200 mg/m^2 IV, Day 1, mean, n = 4
# [3] = 200 mg/m2, Group 4, 200 mg/m^2 IV, Day 8, mean, n = 4
# [4] = 250 mg/m2, Group 5, 250 mg/m^2 IV, Day 1, mean, n = 3
# [5] = 250 mg/m2, Group 5, 250 mg/m^2 IV, Day 8, mean, n = 3
# [6] = 325 mg/m2, Group 6, 325 mg/m^2 IV, Day 1, mean, n = 3
# [7] = 325 mg/m2, Group 6, 325 mg/m^2 IV, Day 8, mean, n = 3
# [8] = 325 mg/m2, Group 8, 325 mg/m^2 IV, Day 1, mean, n = 3
# [9] = 325 mg/m2, Group 8, 325 mg/m^2 IV, Day 1, mean, n = 4
# [10] = 325 mg/m2, Group 8, 325 mg/m^2 IV, Day 15, mean, n = 4
# [11] = 475 mg/m2, Group 7, 475 mg/m^2 IV, Day 1, mean, n = 3
# [12] = 475 mg/m2, Group 7, 475 mg/m^2 IV, Day 8, mean, n = 3
# [13] = 475 mg/m2, Group 9, 475 mg/m^2 IV, Day 1, mean, n = 5
# [14] = 475 mg/m2, Group 9, 475 mg/m^2 IV, Day 15, mean, n = 4
# [15] = 475 mg/m2, Group 9, 475 mg/m^2 IV, Day 15, mean, n = 5
# [16] = 650 mg/m2, Group 10, 650 mg/m^2 IV, Day 1, mean, n = 5
# [17] = 650 mg/m2, Group 10, 650 mg/m^2 IV, Day 15, mean, n = 5
smiles,measurement,setting,value
"Cc1cnc(CNC(=O)c2c(=O)c3ccc(N4CCCN(C)CC4)nc3n3c2sc2ccccc23)cn1 [Compound I, 2-(4-Methyl-[1,4]diazepan-1-yl)-5-oxo-5H-7-thia-1,11b-diaza-benzo[c]fluorene-6-carboxylic acid (5-methyl-pyrazin-2-ylmethyl)-amide]",Tmax,[1],0.646 h
same,Vd,[1],939 L
same,clearance,[1],203 mL/min
same,AUC(0-inf),[1],21800 ng·h/mL
same,half-life,[1],59.1 h
same,Cmax,[2],8950 ng/mL
same,Tmax,[2],0.854 h
same,Vd,[2],1700 L
same,clearance,[2],505 mL/min
same,AUC(0-inf),[2],15100 ng·h/mL
same,half-life,[2],41.9 h
same,Cmax,[3],1180 ng/mL
same,Tmax,[3],1.3 h
same,Vd,[3],2050 L
same,clearance,[3],470 mL/min
same,AUC(0-inf),[3],16200 ng·h/mL
same,half-life,[3],53.5 h
same,Cmax,[4],1410 ng/mL
same,Tmax,[4],1.19 h
same,Vd,[4],1450 L
same,clearance,[4],348 mL/min
same,AUC(0-inf),[4],20900 ng·h/mL
same,half-life,[4],47.9 h
same,Cmax,[5],771 ng/mL
same,Tmax,[5],1.2 h
same,Vd,[5],2160 L
same,clearance,[5],258 mL/min
same,AUC(0-inf),[5],28100 ng·h/mL
same,half-life,[5],96.9 h
same,Cmax,[6],1070 ng/mL
same,Tmax,[6],1.02 h
same,Vd,[6],1930 L
same,clearance,[6],390 mL/min
same,AUC(0-inf),[6],23500 ng·h/mL
same,half-life,[6],66.9 h
same,Cmax,[7],1040 ng/mL
same,Tmax,[7],0.672 h
same,Vd,[7],2220 L
same,clearance,[7],307 mL/min
same,AUC(0-inf),[7],29000 ng·h/mL
same,half-life,[7],86.5 h
same,Vd,[8],2320 L
same,clearance,[8],322 mL/min
same,AUC(0-inf),[8],29100 ng·h/mL
same,half-life,[8],83.4 h
same,Cmax,[9],1140 ng/mL
same,Tmax,[9],0.767 h
same,Cmax,[10],21100 ng/mL
same,Tmax,[10],0.783 h
same,Cmax,[11],1940 ng/mL
same,Tmax,[11],0.861 h
same,Vd,[11],2590 L
same,clearance,[11],418 mL/min
same,AUC(0-inf),[11],36200 ng·h/mL
same,half-life,[11],81.8 h
same,Cmax,[12],1710 ng/mL
same,Tmax,[12],0.678 h
same,Vd,[12],2430 L
same,clearance,[12],482 mL/min
same,AUC(0-inf),[12],35400 ng·h/mL
same,half-life,[12],73.8 h
same,Cmax,[13],1750 ng/mL
same,Tmax,[13],1.18 h
same,Vd,[13],2320 L
same,clearance,[13],460 mL/min
same,AUC(0-inf),[13],36300 ng·h/mL
same,half-life,[13],61.5 h
same,Vd,[14],2570 L
same,clearance,[14],532 mL/min
same,AUC(0-inf),[14],32500 ng·h/mL
same,half-life,[14],59 h
same,Cmax,[15],2870 ng/mL
same,Tmax,[15],0.737 h
same,Cmax,[16],3080 ng/mL
same,Tmax,[16],0.81 h
same,Vd,[16],3700 L
same,AUC(0-inf),[16],57500 ng·h/mL
same,half-life,[16],122 h
same,Cmax,[17],4170 ng/mL
same,Tmax,[17],1.05 h
same,Vd,[17],2620 L
same,AUC(0-inf),[17],62200 ng·h/mL
same,half-life,[17],93.6 h
